Results on one compound are retold here after patent US20020137154A1, “Methods for improving cell growth and alcohol production during fermentation” (priority 2000, published 2002).

Format in all cases: cell-based
The test system of assay [1] is recombinant Escherichia coli KO11. Nature of the assay: Batch fermentation of E. coli KO11 in 1% CSL medium and xylose with nutrient additives: ethanol production and cell growth. As to conditions: 1% CSL+xylose; additive 2 g/L unless indicated.
For assay [2] the test system is unchanged. The assay can be described thus: Batch fermentation of E. coli KO11 in 1% CSL medium and glucose with nutrient additives: ethanol production and cell growth. As to conditions: 1% CSL+glucose; additive 2 g/L unless indicated.
Assay [3] shares this test system. The assay can be described thus: Batch fermentation of E. coli KO11 in Luria broth and xylose with nutrient additives: ethanol production and cell growth. As to conditions: LB+xylose; additive 2 g/L unless indicated. As to the method: Two types of media were tested: 1% CSL and Luria broth (LB). Each contained 97 g of either xylose or glucose per liter. Luria Broth consists of, per liter: 10 g Difco® Tryptone, 5 g Difco® Yeast Extract and 5 g NaCl. The 1% CSL medium consists of Corn Steep Liquor (1% w/v) plus mineral salts (mineral salts per liter: 1 g of KH2PO4. 0.5 g of K2HPO4, 3.1 g of (NH4)2SO4, 0.4 g of MgCl2·6H2), and 20 mg FeCl3·6H2O).
Luria Broth was prepared by autoclaving a 2× nutrient stock containing, per liter: 20 g Difco® Tryptone, 10 g Difo® Yeast Extract, and 10 g NaCl. Sugars (xylose or glucose) were autoclaved separately. A 1% CSL medium was prepared as follows: Commercial Corn Steep Liquor (CSL; 50% dry weight/50% water) was diluted with tap water to make a 20X stock containing 100 g dry weight of Corn Steep Liquor/L and was adjusted to pH 7.2 with NaOH (50%). After sterilization by autoclaving, the 20X CSL stock was clarified by centrifugation at 5000×g for 10 minutes. Magnesium was added as a 100× stock solution (40 g/L MgCl2·6H2O). Iron was added as a 1000× stock solution made by dissolving 20 g FeCl3·6H2O in 175 mL of HCl and adjusting to 1 L with sterile water. Nitrogen, sulfur and phosphorus were added using a 20× stock solution containing the following (per liter): 20 g of KH2PO4, 10 g of K2HPO4 and 62 g of (NH4)2SO4. Stock solutions containing minerals were sterilized separately by autoclaving. Final media was prepared by adding 750 mL of water to 1 L bottle containing 100 g of xylose or glucose.
Inocula were grown in same media used for fermentation and were prepared as follows. Three colonies from a fresh plate were used to inoculate seed cultures: 250-mL flask containing 100 mL medium. These cultures were grown with agitation (120 rpm) for 12-16 hours at 35° C. to a final OD550nm of approximately 2.0-2.5. Cells were harvested by centrifugation at 5000×g for 5 minutes, and resuspended in fresh media to an OD550nm of 0.1. The resulting suspension was distributed into 500-mL beakers containing 345 ml each of fermentation medium. Acetaldehyde was added as indicated. Batch fermentations (35° C., 100 rpm) were maintained at pH 6.5 by the automatic addition of 2N KOH. Cell mass, ethanol, and base addition (2N KOH) were recorded during 96 hours of incubation.
Equivalent amounts of distilled water were added instead of the acetaldehyde in control experiments.
Additives (e.g., as listed in Table 1) were dissolved in 5 mL di-H2O. Solutions with pH lower than 5 were neutralized to pH 6.5 with 2N KOH. Nutritional supplements were then filter-sterilized (0.45 μm filter disk) directly into the fermentation vessel containing the culture. The final concentration of all additives in the culture medium was 2 g/L unless otherwise indicated.
Cell mass was estimated by measuring OD550nm using Baush & Lomb® Spectronic 70 spectrophotometer. […] Ethanol was measured by gas chromatography using a Varian® 3400 CX gas chromatograph with 1-propanol as an internal standard.
Tables 1, 3, and 5 show time to completion of fermentation, ethanol production, and volumetric productivity of the fermentation for all concentrations of the compound and the control. Maximum ethanol production is shown in grams/liter (g/L). The ethanol yield is shown in grams of ethanol/grams of added sugar. Maximum volumetric productivity is shown in grams ethanol/(liter)(hour). The average productivity is calculated form the start of fermentation to the completion of fermentation is grams ethanol/(liter)hour).
Tables 2, 4, and 6 show the initial growth of the cells (OD taken after the first 24 hours of fermentation) and the maximum cell density (the time which culture reaches the maximum OD value).
Acetaldehyde was added to the fermentation medium at five different concentrations and time points. […] Where two additions are indicated, the first volume was added at the start of fermentation and the second was added after 8 hours of fermentation.

`O=C(O)CCC(=O)C(=O)O` [a-KG, α-ketoglutarate]: in assay [1], the “Ethanol Production Maximum” value worked out at 42.32 g/L, the “Ethanol Production Maximum % Control” value stood at 140.70%, the Ethanol yield is 0.436 grams of ethanol/grams of added sugar and the “Initial Growth (OD @ 24 h) % Control” value is recorded as 173.77%. Further, in assay [1], the “Initial Growth (OD @ 24 h) OD” value was found to be 3.55 OD and the Time to completion came to 72 h. In assay [2], the “Ethanol Production Maximum” value stood at 40.33 g/L, the “Ethanol Production Maximum % Control” value is recorded as 109.03%, the Ethanol yield is given as 0.415 grams of ethanol/grams of added sugar and the “Initial Growth (OD @ 24 h) % Control” value is reported as 123.05%. In addition, in assay [2], the “Initial Growth (OD @ 24 h) OD” value is 3.29 OD and the Time to completion was 72 h. In assay [3], the “Ethanol Production Maximum” value turned out to be 42.47 g/L, the Ethanol yield is listed as 0.437 grams of ethanol/grams of added sugar, the “Initial Growth (OD at 24 h) % Control” value is on record as 102.79% and the “Initial Growth (OD at 24 h) OD” value was 10.27 OD. Besides, in assay [3], the Time to completion came to 48 h.
